Experimental data published in paper PMC3602015 (PLoS ONE, 2013).

What was measured:
[1] = molecular target: T1, human wild-type P-gp (ABCB1 1236C-2677G-3435C) (Homo sapiens, UniProt P08183, S893A)
Experimental: (§1) For efflux assays, 1×10^5 cells were seeded on 96-well plates and cultured for 24 hours. […] After washed with warm PBS, cells were allowed to efflux rhodamine123 for 10 min at 37°C in the incubator. Samples (150 µl) were collected and transferred to 96-well black plates. Rhodamine123 concentrations were measured using a set of standards (from 62.5 nM to 8 µM) in HBSS analyzed by the SpectraMax Gemini XS microplate spectrofluorometer (Molecular Devices Co., Sunnyvale, CA, USA) with the excitation set at 485 nm and the emission set at 535 nm. The measured rhodamine123 concentrations were normalized to the total protein content in the cells. Total protein concentrations were measured by a microplate assay protocol (Dc protein assay reagent, Bio-Rad, Hercules, CA, USA), and bovine serum albumin was used as the standard. Each experiment was repeated at least three times across cell passages to ensure stability of transfection and consistency and reproducibility of the experiments.
(§2) For kinetic studies, kinetic parameters were estimated by nonlinear regression using Scientist v2.01 (MicroMath Scientific Software, Salt Lake City, UT, U.S.A.) according to the following equation: [drawing 6] Where V denoted the efflux rate; Vmax, the maximal efflux rate; Km, the Michaelis-Menten constant and C is the substrate concentration.

[2] = molecular target: T2, human P-gp with 1236T-2677T-3435T genotype (Homo sapiens, UniProt P08183)
Experimental: as §1, §2

[3] = molecular target: T3, human P-gp with 1236T-2677A-3435T genotype (Homo sapiens, UniProt P08183, S893T)
Experimental: as §1, §2

[4] = molecular target: T1, human wild-type P-gp (ABCB1 1236C-2677G-3435C); test: in vitro
Experimental: as §1, §2

[5] = molecular target: T2, human P-gp with 1236T-2677T-3435T genotype; test: in vitro
Experimental: as §1, §2

[6] = molecular target: T3, human P-gp with 1236T-2677A-3435T genotype; test: in vitro
Experimental: as §1, §2

[7] = tested on: Flp-In™-293 cells; test: Cytotoxicity assay (MTT); format: cell-based, human; details: methadone 0.5 to 40 µM; 48 hours
Experimental: Briefly, the cells were seeded into 24-well plates and cultured overnight. […] After incubation, the medium was removed and added fresh culture medium 200 µl containing 0.5 mg/ml MTT and then incubated at 37°C for 4 hours. After incubation, the medium was removed and 200 µl DMSO was added, and incubation for 30 minutes at room temperature. After incubation, 100 µl of solution was transferred to a 96-well plate and absorbance was measured using an ELISA plate reader (Molecular Devices, Sunnyvale, USA) at 570 nm with a reference wavelength of 650 nm.

[8] = molecular target: T1, human wild-type P-gp (ABCB1 1236C-2677G-3435C); test: cell-based
Experimental: as §1, §2

[9] = molecular target: T2, human P-gp with 1236T-2677T-3435T genotype; test: cell-based
Experimental: as §1, §2

[10] = molecular target: T3, human P-gp with 1236T-2677A-3435T genotype; test: cell-based
Experimental: as §1, §2

[11] = cited from earlier work

T3 sequence (P08183 whole entry S893T): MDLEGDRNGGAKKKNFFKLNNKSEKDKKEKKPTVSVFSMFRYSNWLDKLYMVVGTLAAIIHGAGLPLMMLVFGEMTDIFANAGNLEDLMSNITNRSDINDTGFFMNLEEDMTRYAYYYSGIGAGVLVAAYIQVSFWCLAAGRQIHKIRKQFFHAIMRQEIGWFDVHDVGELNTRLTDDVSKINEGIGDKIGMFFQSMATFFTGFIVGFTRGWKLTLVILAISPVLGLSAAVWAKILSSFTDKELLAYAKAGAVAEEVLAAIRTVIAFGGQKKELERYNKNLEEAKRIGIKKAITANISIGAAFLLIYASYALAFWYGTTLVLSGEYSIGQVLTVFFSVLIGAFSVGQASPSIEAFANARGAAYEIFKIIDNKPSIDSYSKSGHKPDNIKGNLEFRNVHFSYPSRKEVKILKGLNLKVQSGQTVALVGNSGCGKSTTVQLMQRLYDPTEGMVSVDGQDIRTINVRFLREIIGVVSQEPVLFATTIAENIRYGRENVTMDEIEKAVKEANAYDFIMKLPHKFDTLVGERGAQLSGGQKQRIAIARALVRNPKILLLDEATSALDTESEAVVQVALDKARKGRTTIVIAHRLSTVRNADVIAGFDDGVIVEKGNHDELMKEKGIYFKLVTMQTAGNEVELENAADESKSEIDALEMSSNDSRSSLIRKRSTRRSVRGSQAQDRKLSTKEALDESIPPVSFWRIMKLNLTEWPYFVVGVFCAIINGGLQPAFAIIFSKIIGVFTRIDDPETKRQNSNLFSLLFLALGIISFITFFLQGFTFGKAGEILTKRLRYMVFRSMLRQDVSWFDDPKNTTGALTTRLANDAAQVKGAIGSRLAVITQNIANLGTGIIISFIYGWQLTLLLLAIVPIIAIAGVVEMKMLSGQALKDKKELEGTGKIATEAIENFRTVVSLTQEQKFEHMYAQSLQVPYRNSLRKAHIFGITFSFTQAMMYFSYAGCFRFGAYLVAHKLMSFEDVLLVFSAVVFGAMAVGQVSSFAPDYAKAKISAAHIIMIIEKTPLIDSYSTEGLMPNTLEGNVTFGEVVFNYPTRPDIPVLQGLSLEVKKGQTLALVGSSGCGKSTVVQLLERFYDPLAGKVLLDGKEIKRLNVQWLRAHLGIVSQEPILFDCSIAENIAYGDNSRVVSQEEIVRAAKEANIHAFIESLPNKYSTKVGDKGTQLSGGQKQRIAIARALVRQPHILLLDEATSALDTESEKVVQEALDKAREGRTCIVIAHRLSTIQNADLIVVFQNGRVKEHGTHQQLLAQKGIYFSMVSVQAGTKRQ
T2 sequence (P08183 whole entry): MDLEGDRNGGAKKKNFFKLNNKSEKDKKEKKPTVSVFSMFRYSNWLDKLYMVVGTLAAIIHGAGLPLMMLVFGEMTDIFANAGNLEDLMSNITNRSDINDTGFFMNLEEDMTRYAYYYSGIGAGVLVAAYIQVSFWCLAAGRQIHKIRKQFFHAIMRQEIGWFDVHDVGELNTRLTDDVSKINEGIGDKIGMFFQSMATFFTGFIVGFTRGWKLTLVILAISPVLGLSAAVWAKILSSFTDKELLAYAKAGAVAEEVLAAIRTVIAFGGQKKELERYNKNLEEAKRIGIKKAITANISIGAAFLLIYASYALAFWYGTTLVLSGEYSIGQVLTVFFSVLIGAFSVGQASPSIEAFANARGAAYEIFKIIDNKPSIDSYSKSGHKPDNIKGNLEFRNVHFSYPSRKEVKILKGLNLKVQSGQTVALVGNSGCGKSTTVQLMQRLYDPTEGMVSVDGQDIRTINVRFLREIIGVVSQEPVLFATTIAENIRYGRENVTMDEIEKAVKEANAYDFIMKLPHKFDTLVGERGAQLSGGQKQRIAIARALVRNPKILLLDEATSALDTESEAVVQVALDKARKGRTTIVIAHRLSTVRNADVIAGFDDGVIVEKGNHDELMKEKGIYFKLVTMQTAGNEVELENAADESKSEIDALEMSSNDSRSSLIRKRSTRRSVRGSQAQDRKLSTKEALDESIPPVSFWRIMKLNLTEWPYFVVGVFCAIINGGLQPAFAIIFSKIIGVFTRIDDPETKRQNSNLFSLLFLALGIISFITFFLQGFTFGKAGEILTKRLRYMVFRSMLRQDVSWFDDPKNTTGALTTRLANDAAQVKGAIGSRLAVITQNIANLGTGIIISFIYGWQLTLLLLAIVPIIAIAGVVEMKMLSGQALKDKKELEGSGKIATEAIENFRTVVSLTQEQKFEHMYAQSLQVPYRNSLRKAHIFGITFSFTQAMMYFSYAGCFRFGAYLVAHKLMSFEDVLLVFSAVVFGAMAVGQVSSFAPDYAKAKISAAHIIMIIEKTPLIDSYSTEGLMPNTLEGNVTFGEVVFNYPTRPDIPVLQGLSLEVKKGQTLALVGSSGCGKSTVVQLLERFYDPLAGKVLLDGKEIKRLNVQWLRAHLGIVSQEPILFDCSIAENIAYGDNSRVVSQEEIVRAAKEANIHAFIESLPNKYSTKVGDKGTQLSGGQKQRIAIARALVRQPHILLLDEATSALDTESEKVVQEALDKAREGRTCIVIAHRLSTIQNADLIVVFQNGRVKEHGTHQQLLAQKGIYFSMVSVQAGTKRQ
T1 sequence (P08183 whole entry S893A): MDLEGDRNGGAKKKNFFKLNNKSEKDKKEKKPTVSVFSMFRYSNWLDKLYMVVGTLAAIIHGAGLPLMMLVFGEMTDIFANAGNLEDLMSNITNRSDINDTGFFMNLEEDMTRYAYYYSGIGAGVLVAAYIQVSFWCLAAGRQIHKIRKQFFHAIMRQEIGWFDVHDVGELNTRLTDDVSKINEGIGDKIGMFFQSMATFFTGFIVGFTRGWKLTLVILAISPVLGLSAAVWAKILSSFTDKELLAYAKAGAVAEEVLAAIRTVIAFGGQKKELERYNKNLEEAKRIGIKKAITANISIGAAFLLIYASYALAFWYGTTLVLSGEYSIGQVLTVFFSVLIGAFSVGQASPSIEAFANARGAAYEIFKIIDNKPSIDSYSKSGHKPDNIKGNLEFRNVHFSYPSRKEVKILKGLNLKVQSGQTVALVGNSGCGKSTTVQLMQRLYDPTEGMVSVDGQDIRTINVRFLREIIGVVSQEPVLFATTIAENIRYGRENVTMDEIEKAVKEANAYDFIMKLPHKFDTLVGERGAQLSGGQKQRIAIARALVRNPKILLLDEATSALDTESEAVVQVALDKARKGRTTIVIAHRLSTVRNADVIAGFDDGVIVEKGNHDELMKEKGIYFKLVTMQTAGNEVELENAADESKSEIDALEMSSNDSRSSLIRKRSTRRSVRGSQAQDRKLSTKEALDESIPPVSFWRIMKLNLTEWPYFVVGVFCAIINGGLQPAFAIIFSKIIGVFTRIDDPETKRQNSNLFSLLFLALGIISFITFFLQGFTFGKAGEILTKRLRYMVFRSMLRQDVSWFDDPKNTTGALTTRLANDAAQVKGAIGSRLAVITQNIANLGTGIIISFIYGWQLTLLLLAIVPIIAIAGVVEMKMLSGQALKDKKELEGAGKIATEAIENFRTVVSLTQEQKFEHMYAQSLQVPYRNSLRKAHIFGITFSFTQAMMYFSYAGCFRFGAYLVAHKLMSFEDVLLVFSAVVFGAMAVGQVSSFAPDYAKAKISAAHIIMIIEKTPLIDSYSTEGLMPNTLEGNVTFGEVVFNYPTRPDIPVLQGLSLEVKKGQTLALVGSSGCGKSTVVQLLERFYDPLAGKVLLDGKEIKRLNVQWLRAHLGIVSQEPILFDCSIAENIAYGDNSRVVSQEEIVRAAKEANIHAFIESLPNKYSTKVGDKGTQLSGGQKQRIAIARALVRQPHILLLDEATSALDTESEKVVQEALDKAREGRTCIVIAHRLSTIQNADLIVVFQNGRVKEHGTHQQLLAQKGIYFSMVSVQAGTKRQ

SMILES	non-specific first-order rate constant of rhodamine 123 efflux [1]	non-specific transport as share of the total efflux [1]	Vmax of rhodamine 123 efflux [2]	Vmax of rhodamine 123 efflux [3]	Km at 10 min [4]	Km at 10 min [5]	Km at 10 min [6]	cell viability (MTT assay) [7]	IC50 [8]	Ki [8]	IC50 [9]	Ki [9]	IC50 [10]	Ki [10]	therapeutic range [11]
COC(=O)c1ccccc1-c1c2ccc(=N)cc-2oc2cc(N)ccc12 [Rhodamine 123]	12.08±1.23 µL/mg protein/10 min	2.9%	8.29±0.89 nmole/mg protein/10 min	7.34±0.63 nmole/mg protein/10 min	16.6 ± 3.01 µM	18.8 ± 2 µM	14.8 ± 1.72 µM								
CCC(=O)C(CC(C)N(C)C)(c1ccccc1)c1ccccc1 (stereo not drawn) [methadone]								did not affect	2.17 ± 0.1 µM	2.77 ± 0.15 µM	2.97 ± 0.09 µM	3.92 ± 0.07 µM	4.43 ± 1.1 µM	4.53 ± 1.17 µM	1 to 3 µM
